Measurements: the supplement of paper PMC13380429

Key:
Conditions in all cases: 72 h
Caco-2 [1] = test: relative viability EC50 (midpoint between 100% and the lowest measured viability); higher = less toxic
U2OS [2] = test: as above
Vero E6 [3] = test: as above
HepG2 [4] = test: as above
Calu-3 [5] = test: as above
Caco-2 [6] = test: drug sensitivity score (DSS) for viability; higher = more toxic; extreme values may be limits of the assay
U2OS [7] = test: as above
Vero E6 [8] = test: as above
HepG2 [9] = test: as above
Calu-3 [10] = test: as above
Caco-2 [11] = test: cell viability relative to DMSO; higher = less toxic
U2OS [12] = test: as above
Vero E6 [13] = test: as above
HepG2 [14] = test: as above
Calu-3 [15] = test: as above

| Compound | relative viability EC50 (Caco-2 [1]) [µM] | relative viability EC50 (U2OS [2]) [µM] | relative viability EC50 (Vero E6 [3]) [µM] | relative viability EC50 (HepG2 [4]) [µM] | relative viability EC50 (Calu-3 [5]) [µM] | drug sensitivity score (Caco-2 [6]) | drug sensitivity score (U2OS [7]) | drug sensitivity score (Vero E6 [8]) | drug sensitivity score (HepG2 [9]) | drug sensitivity score (Calu-3 [10]) | cell viability (Caco-2 [11]; 1 nM) [%] | cell viability (Caco-2 [11]; 10 nM) [%] | cell viability (Caco-2 [11]; 100 nM) [%] | cell viability (Caco-2 [11]; 1000 nM) [%] | cell viability (Caco-2 [11]; 10000 nM) [%] | cell viability (U2OS [12]; 1 nM) [%] | cell viability (U2OS [12]; 10 nM) [%] | cell viability (U2OS [12]; 100 nM) [%] | cell viability (U2OS [12]; 1000 nM) [%] | cell viability (U2OS [12]; 10000 nM) [%] | cell viability (Vero E6 [13]; 1 nM) [%] | cell viability (Vero E6 [13]; 10 nM) [%] | cell viability (Vero E6 [13]; 100 nM) [%] | cell viability (Vero E6 [13]; 1000 nM) [%] | cell viability (Vero E6 [13]; 10000 nM) [%] | cell viability (HepG2 [14]; 1 nM) [%] | cell viability (HepG2 [14]; 10 nM) [%] | cell viability (HepG2 [14]; 100 nM) [%] | cell viability (HepG2 [14]; 1000 nM) [%] | cell viability (HepG2 [14]; 10000 nM) [%] | cell viability (Calu-3 [15]; 1 nM) [%] | cell viability (Calu-3 [15]; 10 nM) [%] | cell viability (Calu-3 [15]; 100 nM) [%] | cell viability (Calu-3 [15]; 1000 nM) [%] | cell viability (Calu-3 [15]; 10000 nM) [%] |
| --- | --- | --- | --- | --- | --- | --- | --- | --- | --- | --- | --- | --- | --- | --- | --- | --- | --- | --- | --- | --- | --- | --- | --- | --- | --- | --- | --- | --- | --- | --- | --- | --- | --- | --- | --- |
| CC(C)(C)NS(=O)(=O)c1cncc(-c2cc(F)c3nc(N)nn3c2)c1 | > 10 | > 10 | > 10 | > 10 | > 10 | 0 | 0 | 0 | 0 | 0 | 95.6 | 91.8 | 106 | 87.7 | 107 | 98.5 | 92.5 | 97.9 | 95.8 | 95.9 | 93.5 | 99.3 | 94 | 96.3 | 100 | 94.7 | 106 | 90.7 | 101 | 105 | 96.1 | 82.5 | 95.2 | 84.2 | 97.1 |
| COc1cc(C=O)ccc1O [vanillin] | > 10 | > 10 | > 10 | > 10 | > 10 | 0 | 0 | 0 | 0 | 0 | 92.8 | 90 | 96 | 104 | 96.6 | 96.1 | 104 | 95.1 | 104 | 99.1 | 92 | 91.5 | 89.7 | 89 | 105 | 99.9 | 91.9 | 102 | 115 | 97.4 | 97.5 | 107 | 109 | 99.8 | 105 |
